Drawing on the supplement of paper PMC10307832, this text covers relative viability for three cell lines.

Common to all, as to experiment: relative viability (nuclei count vs DMSO), 5 days (fraction); higher = more cells survive
Compound in the test “VE-821 + Pemetrexed”: CS(=O)(=O)c1ccc(-c2cnc(N)c(C(=O)Nc3ccccc3)n2)cc1 [VE-821] + Nc1nc2[nH]cc(CCc3ccc(C(=O)N[C@@H](CCC(=O)O)C(=O)O)cc3)c2c(=O)[nH]1 [Pemetrexed] (partner 0.2 µM)
The essentials: (§1)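 Five library-drug doses in √10 steps were combined with a fixed anchor-drug dose, or a single drug was given alone, by pin tool to lung cancer cell lines in 1536-well plates the day after seeding. Nuclei were stained and counted after 5 days. Relative viability is the nuclei count in treated wells over that in vehicle wells, taken as the median of duplicate plates.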

Compound in the test “VE-821 + Decitabine”: CS(=O)(=O)c1ccc(-c2cnc(N)c(C(=O)Nc3ccccc3)n2)cc1 [VE-821] + Nc1ncn([C@H]2C[C@H](O)[C@@H](CO)O2)c(=O)n1 [Decitabine] (partner 2 µM)
A digest of the protocol:
as §1

Compound in the test “VE-821 + AZD7762”: CS(=O)(=O)c1ccc(-c2cnc(N)c(C(=O)Nc3ccccc3)n2)cc1 [VE-821] + NC(=O)Nc1cc(-c2cccc(F)c2)sc1C(=O)N[C@H]1CCCNC1 [AZD7762] (partner 0.2 µM)
The essentials:
as §1

Compound in the test “Ruxolitinib + Trametinib”: N#CC[C@H](C1CCCC1)n1cc(-c2ncnc3[nH]ccc23)cn1 [Ruxolitinib] + CC(=O)Nc1cccc(-n2c(=O)n(C3CC3)c(=O)c3c(Nc4ccc(I)cc4F)n(C)c(=O)c(C)c32)c1 [Trametinib] (partner 0.02 µM)
A digest of the protocol: as §1

Consider PC-14, for which the relative viability with VE-821 + Pemetrexed (first compound 0.08 µM) was found to be 0.126; with VE-821 + Pemetrexed (first compound 0.253 µM), 0.124; with VE-821 + Pemetrexed (first compound 0.8 µM), 0.0908; in the test with VE-821 + Pemetrexed (first compound 2.53 µM) it was 0.0863; with VE-821 + Pemetrexed (first compound 8 µM), 0.0432; with VE-821 + Decitabine (first compound 0.08 µM) it was 0.221. The relative viability in the test with VE-821 + Decitabine (first compound 0.253 µM) turned out to be 0.241; in the test with VE-821 + Decitabine (first compound 0.8 µM), 0.222; with VE-821 + Decitabine (first compound 2.53 µM) it was 0.213; with VE-821 + Decitabine (first compound 8 µM) it was 0.126; with VE-821 + AZD7762 (first compound 0.08 µM), 0.362; with VE-821 + AZD7762 (first compound 0.253 µM), 0.232. Besides, the relative viability with VE-821 + AZD7762 (first compound 0.8 µM) was 0.315; with VE-821 + AZD7762 (first compound 2.53 µM), 0.338; in the test with VE-821 + AZD7762 (first compound 8 µM), 0.187; with Ruxolitinib + Trametinib (first compound 0.253 µM) it was 0.829; with Ruxolitinib + Trametinib (first compound 0.8 µM), 1.17; in the test with Ruxolitinib + Trametinib (first compound 2.53 µM) it was 0.45. In the test with Ruxolitinib + Trametinib (first compound 8 µM), the relative viability is 0.625.

Turning to RERF-LC-KJ, the relative viability in the test with VE-821 + Pemetrexed (first compound 0.08 µM) turned out to be 0.495; with VE-821 + Pemetrexed (first compound 0.253 µM), 0.504; with VE-821 + Pemetrexed (first compound 0.8 µM) it was 0.46; with VE-821 + Pemetrexed (first compound 2.53 µM), 0.457; in the test with VE-821 + Pemetrexed (first compound 8 µM) it was 0.376; in the test with VE-821 + Decitabine (first compound 0.08 µM), 0.731. Besides, the relative viability is 0.681 with VE-821 + Decitabine (first compound 0.253 µM); 0.633 in the test with VE-821 + Decitabine (first compound 0.8 µM); 0.725 in the test with VE-821 + Decitabine (first compound 2.53 µM); 0.609 in the test with VE-821 + Decitabine (first compound 8 µM); 0.994 in the test with VE-821 + AZD7762 (first compound 0.08 µM); 0.975 with VE-821 + AZD7762 (first compound 0.253 µM). Besides, the relative viability in the test with VE-821 + AZD7762 (first compound 0.8 µM) was determined as 0.974; in the test with VE-821 + AZD7762 (first compound 2.53 µM) it was 1.03; in the test with VE-821 + AZD7762 (first compound 8 µM), 0.688; with Ruxolitinib + Trametinib (first compound 0.08 µM), 0.797; with Ruxolitinib + Trametinib (first compound 0.253 µM), 0.978; with Ruxolitinib + Trametinib (first compound 0.8 µM), 0.939. The relative viability with Ruxolitinib + Trametinib (first compound 2.53 µM) turned out to be 0.834; with Ruxolitinib + Trametinib (first compound 8 µM) it was 0.906.

With SW 900, the relative viability in the test with VE-821 + Pemetrexed (first compound 0.08 µM) worked out at 0.494; with VE-821 + Pemetrexed (first compound 0.253 µM) it was 0.504; with VE-821 + Pemetrexed (first compound 0.8 µM), 0.461; in the test with VE-821 + Pemetrexed (first compound 2.53 µM), 0.46; with VE-821 + Pemetrexed (first compound 8 µM), 0.221; with VE-821 + Decitabine (first compound 0.08 µM) it was 0.471. The relative viability is 0.456 in the test with VE-821 + Decitabine (first compound 0.253 µM); 0.472 with VE-821 + Decitabine (first compound 0.8 µM); 0.469 with VE-821 + Decitabine (first compound 2.53 µM); 0.386 with VE-821 + Decitabine (first compound 8 µM); 0.673 with VE-821 + AZD7762 (first compound 0.08 µM); 0.506 in the test with VE-821 + AZD7762 (first compound 0.253 µM). Moreover, the relative viability came to 0.391 in the test with VE-821 + AZD7762 (first compound 0.8 µM); 0.437 with VE-821 + AZD7762 (first compound 2.53 µM); 0.351 with VE-821 + AZD7762 (first compound 8 µM); 0.597 with Ruxolitinib + Trametinib (first compound 0.08 µM); 0.742 in the test with Ruxolitinib + Trametinib (first compound 0.253 µM); 1.09 with Ruxolitinib + Trametinib (first compound 0.8 µM). In addition, the results for the relative viability in the test with Ruxolitinib + Trametinib (first compound 2.53 µM) and in the test with Ruxolitinib + Trametinib (first compound 8 µM) were 0.614 and 0.902, respectively.
